Experimental data from patent US20080206198A1, “Compounds and methods for pharmico-gene therapy of epithelial sodium channel associated disorders” (priority 2003, published 2008).

Tests used:
[1] = tested on: polarized human airway epithelial cells; conditions: hypotonic EGTA solution alone; cited from earlier work
[2] = tested on: mouse lung; test: Intranasal AAV2-Luc with anthracyclines in Balb/c mice (lung luciferase); assay type: in vivo; conditions: 10% HDE intranasal, day 7
Description: (§1) Animals were followed for seven days post dose.
The dose of modulator was based on the Human Dose Equivalent (HDE) and is summarized below in Table 4. For intranasal dose administration, the dose was held constant at 10% of the HDE.
On the day of sacrifice, the left lung was clamped off at the level of the extrapulmonary bronchi, removed and frozen on dry ice. The left lung was homogenized and processed for luciferase expression using Promega's luciferase assay system (Madison, Wis.). Luminescence was measured using the Berthold AutoLumat LB953 instrument. Samples were normalized for total protein using Pierce's Coomassie Plus Protein Assay Reagent (Rockford, Ill.).

[3] = tested on: HeLa cells; test: AAV2 FLAG-Luc transduction of HeLa cells (luciferase screen); assay type: cell-based, human
Description: A. To screen for agents that enhance rAAV transduction, any number of cells can be used. A range of concentrations of the agent to be tested can be determined based on, for instance desirable profiles of the agent, desirable toxicity profiles of the agent and/or concentration of the agents employed in vivo. The usefulness of the cell type chosen for the screen can be confirmed by testing compounds, e.g., proteasome inhibitors such as LLnL and ZLL which are known to increase rAAV transduction. For example, a AAV2 FLAG-Luc vector was employed to transduce HeLa, ferret fibroblasts, IB3 and Huh (liver) cells in the presence or absence of the proteasome inhibitor MG132. MG132 was confirmed to enhance AAV transduction in all cell types tested: HeLa cell transduction was enhanced about 500-fold at 80 μM, and 200-fold at 40 μM, MG132; ferret fibroblast cell transduction was enhanced about 200-fold at 20 μM, and 17-fold at 4 μM, MG132; IB3-1 cell transduction was enhanced about 30 to 70-fold at 20 to 80 μM MG132; and Huh-7 cell transduction was enhanced about 15-fold at 20 to 80 μM MG132. There was no difference in rAAV transduction efficiency in HeLa cells when either DMSO or ETOH was used as a vehicle for MG132. B. HeLa cells were selected to screen for additional agents that enhance rAAV transduction, although any cell strain or line; or primary cells, may be employed. […] The range of concentrations of the agents to be tested were selected based on solubility profiles, toxicity profiles and/or concentrations previously employed in vivo.
HeLa cells were infected for 2 hours with an MOI of 100 rAAV in the presence of agents, e.g., ritonavir (Norvir) (1, 10 and 100 μM), cyclosporin A (2.5, 25 and 250 μg/ml), epoxomicin (1, 10 and 50 μM), alcacinomycin A (5, 50 or 500 μM), chymostatin (1, 10 and 100 μM), bestatin (1, 10 and 100 μM), doxorubicin (adriamycin) (0.1, 1 and 10 μM), camptothecin (camptosar) (1, 10 and 100 μM), eicosapentanoic acid (1, 10 and 100 μM), tannic acid (2, 20, 200 and 2000 μM), simvastatin, prodrug (2, 20 and 200 μM), cisplatin (0.2, 2 and 20 μg/mL), and chloroquine (4, 40 and 400 μM). Forty-eight hours after infection, cells were harvested for analysis. rAAV transduction was measured by removing the media from the cell cultures, adding 100 μL reporter lysis buffer (RLB) and freezing. The supernatant was thawed and transferred to microfuge tubes, freeze thawed an additional 2 times, clarified by centrifugation for 10 minutes and then analyzed for reporter gene expression on the lumometer. Protein was determined by Bradford analysis and results were expressed as relative light units per mg protein (RLU/mg).
Based on results with doxorubicin, a small number of FDA approved anthracyclines were tested for their relative in vitro and in vivo activities on AAV transduction. HeLa cells were infected with 100 ppc AAV2FLAG-Luc for 2 hours in the presence of different anthracyclines, e.g., doxorubicin, daunarubicin (Cerubidine), epirubicin (Ellence™), and idarubicin (Idamycin®), and cells harvested 48 hours later. The anthracyclines were pharmaceutical grade, and prepared according to the manufacturer's instructions. Prior to use, the agents were diluted in sterile water to an equal mass, e.g., 0.6 μg/mL, 3 μg/mL and 6 μg/mL. For example, 3 μg/mL idamycin increased luciferase expression by over 5000-fold while doxorubin increased luciferase expression by 58-fold. Generally, the potency was as follows: idarubicin>daunarubicin>epirubicin>doxorubicin.

[4] = tested on: Balb/c mice; test: Safety of anthracyclines in Balb/c mice; assay type: in vivo, mouse; conditions: intranasal, 10% HDE
Description: as §1
Safety endpoints included morbidity and mortality, clinical observations, body weights, gross necropsy observations and histopathology. Transduction endpoints included luciferase and GFP analysis.

SMILES | increase of AAV transduction from the apical surface [1] [fold] | Fold Increase in luciferase expression ([2]; both sexes) | luciferase expression, Average ([2]; both sexes) | Fold Increase in luciferase expression ([2]; female) | luciferase expression, Average ([2]; female) | Fold Increase in luciferase expression ([2]; male) | luciferase expression, Average ([2]; male) | increase in luciferase expression ([3]; 3 μg/mL, 100 ppc AAV2FLAG-Luc, harvest 48 hours) | order of potency among anthracyclines ([3]; 0.6, 3 and 6 μg/mL) | mortality and clinical observations ([4]; 7 days) | body weight ([4]; over the week)
O=C(O)CN(CCOCCOCCN(CC(=O)O)CC(=O)O)CC(=O)O [EGTA] | 7 to 10 |  |  |  |  |  |  |  |  |  | 
CC(=O)[C@]1(O)Cc2c(O)c3c(c(O)c2[C@@H](O[C@H]2C[C@H](N)[C@H](O)[C@H](C)O2)C1)C(=O)c1ccccc1C3=O [Idamycin, idarubicin] |  | 90 | 5.06E+05 | 57 | 2.02E+05 | 111 | 8.11E+05 | over 5000 fold | idarubicin>daunarubicin>epirubicin>doxorubicin | early mortality of some animals, ruffled hair coats and sick mice | lost considerable body weight
